{"source": "patent US10770169B2", "about": "“Method of providing a treatment to a subject based on a dynamic pathway map” (THE REGENTS OF THE UNIVERSITY OF CALIFORNIA, priority 2010, dated 2020)", "key": {"[1]": {"tested_on": "panel of 55 breast cancer cell lines", "test": "Cell growth inhibition assay (Cell Titer Glo, 72 h, 9 doses; GI50, TGI, LC50)", "type": "cell-based, human", "conditions": "Homo sapiens, read-out: GI50 (converted)"}, "[2]": {"tested_on": "breast cancer cell lines with aberrant vs normal copy number", "test": "Association of recurrent copy number changes and response (t-test on GI50)", "type": "cell-based, human", "conditions": "FDR p<0.2", "excerpt": "We used a t-test to assess the association between recurrent copy number changes (at 8q24 (MYC), 11q13 (CCND1), 20q13 (STK15/AURKA)) and drug sensitivity. We combined into a single group cell lines with low or no amplification and compared them to cell lines with high amplification. […] Cell lines for which the GI50 was equal to the maximum concentration tested were omitted from analysis. We omitted compounds where any group had fewer than five samples."}}, "note": "Where two headings read alike, the source gives them in different places."}
{"compound": "CCC1=C[C@@H]2CN(C1)Cc1c([nH]c3ccccc13)[C@@](C(=O)OC)(c1cc3c(cc1OC)N(C)[C@H]1[C@@](O)(C(=O)OC)[C@H](OC(C)=O)[C@]4(CC)C=CCN5CC[C@]31[C@@H]54)C2", "note": "[Vinorelbine]", "values": [{"measurement": "GI50", "setting": "[1]; 600MPE cell line, censored GI50 values", "value": 5130, "unit": "nM"}, {"measurement": "GI50", "setting": "[1]; AU565, AU565 cell line, censored GI50 values", "value": 8.71, "unit": "nM"}, {"measurement": "GI50", "setting": "[1]; AU565, cell line AU565", "value": 8.71, "unit": "nM"}, {"measurement": "GI50", "setting": "[1]; BT-474, BT474 cell line, censored GI50 values", "value": 47.9, "unit": "nM"}, {"measurement": "GI50", "setting": "[1]; BT-474, cell line BT474", "value": 47.9, "unit": "nM"}, {"measurement": "GI50", "setting": "[1]; BT-483, BT483 cell line, censored GI50 values", "value": 7.24, "unit": "nM"}, {"measurement": "GI50", "setting": "[1]; BT-483, cell line BT483", "value": 7.24, "unit": "nM"}, {"measurement": "GI50", "setting": "[1]; BT-549, BT549 cell line, censored GI50 values", "value": 9.55, "unit": "nM"}, {"measurement": "GI50", "setting": "[1]; BT-549, cell line BT549", "value": 9.55, "unit": "nM"}, {"measurement": "GI50", "setting": "[1]; CAMA-1, CAMA1 cell line, censored GI50 values", "value": 13.2, "unit": "nM"}, {"measurement": "GI50", "setting": "[1]; CAMA-1, cell line CAMA1", "value": 13.2, "unit": "nM"}, {"measurement": "GI50", "setting": "[1]; HCC38, HCC38 cell line, censored GI50 values", "value": 11.5, "unit": "nM"}, {"measurement": "GI50", "setting": "[1]; HCC38, cell line HCC38", "value": 11.5, "unit": "nM"}, {"measurement": "GI50", "setting": "[1]; HCC70, HCC70 cell line, censored GI50 values", "value": 7.41, "unit": "nM"}, {"measurement": "GI50", "setting": "[1]; HCC70, cell line HCC70", "value": 7.41, "unit": "nM"}, {"measurement": "GI50", "setting": "[1]; HCC202, HCC202 cell line, censored GI50 values", "value": 13.5, "unit": "nM"}, {"measurement": "GI50", "setting": "[1]; HCC202, cell line HCC202", "value": 13.5, "unit": "nM"}, {"measurement": "GI50", "setting": "[1]; HCC1143, HCC1143 cell line, censored GI50 values", "value": 263, "unit": "nM"}, {"measurement": "GI50", "setting": "[1]; HCC1143, cell line HCC1143", "value": 263, "unit": "nM"}, {"measurement": "GI50", "setting": "[1]; HCC1187, HCC1187 cell line, censored GI50 values", "value": 26.9, "unit": "nM"}, {"measurement": "GI50", "setting": "[1]; HCC1187, cell line HCC1187", "value": 26.9, "unit": "nM"}, {"measurement": "GI50", "setting": "[1]; HCC1395, HCC1395 cell line, censored GI50 values", "value": 3.55, "unit": "nM"}, {"measurement": "GI50", "setting": "[1]; HCC1395, cell line HCC1395", "value": 3.55, "unit": "nM"}, {"measurement": "GI50", "setting": "[1]; HCC1419, HCC1419 cell line, censored GI50 values", "value": 355, "unit": "nM"}, {"measurement": "GI50", "setting": "[1]; HCC1419, cell line HCC1419", "value": 355, "unit": "nM"}, {"measurement": "GI50", "setting": "[1]; HCC1428, HCC1428 cell line, censored GI50 values", "value": 2190, "unit": "nM"}, {"measurement": "GI50", "setting": "[1]; HCC1428, cell line HCC1428", "value": 2190, "unit": "nM"}, {"measurement": "GI50", "setting": "[1]; HCC1500, HCC1500 cell line, censored GI50 values", "value": 11, "unit": "nM"}, {"measurement": "GI50", "setting": "[1]; HCC1500, cell line HCC1500", "value": 11, "unit": "nM"}, {"measurement": "GI50", "setting": "[1]; HCC1806, HCC1806 cell line, censored GI50 values", "value": 11.7, "unit": "nM"}, {"measurement": "GI50", "setting": "[1]; HCC1806, cell line HCC1806", "value": 11.7, "unit": "nM"}, {"measurement": "GI50", "setting": "[1]; HCC1937, HCC1937 cell line, censored GI50 values", "value": 224, "unit": "nM"}, {"measurement": "GI50", "setting": "[1]; HCC1937, cell line HCC1937", "value": 224, "unit": "nM"}, {"measurement": "GI50", "setting": "[1]; HCC1954, HCC1954 cell line, censored GI50 values", "value": 3.55, "unit": "nM"}, {"measurement": "GI50", "setting": "[1]; HCC1954, cell line HCC1954", "value": 3.55, "unit": "nM"}, {"measurement": "GI50", "setting": "[1]; HCC2185 cell line, censored GI50 values", "value": 26300, "unit": "nM"}, {"measurement": "GI50", "setting": "[1]; HCC3153 cell line, censored GI50 values", "value": 51.3, "unit": "nM"}, {"measurement": "GI50", "setting": "[1]; LY2 cell line, censored GI50 values", "value": 13.2, "unit": "nM"}, {"measurement": "GI50", "setting": "[1]; MCF7, MCF7 cell line, censored GI50 values", "value": 16.6, "unit": "nM"}, {"measurement": "GI50", "setting": "[1]; MCF7, cell line MCF7", "value": 16.6, "unit": "nM"}, {"measurement": "GI50", "setting": "[1]; MDA-MB-134-VI, MDAMB134VI cell line, censored GI50 values", "value": 13.5, "unit": "nM"}, {"measurement": "GI50", "setting": "[1]; MDA-MB-157, MDAMB157 cell line, censored GI50 values", "value": 12.9, "unit": "nM"}, {"measurement": "GI50", "setting": "[1]; MDA-MB-157, cell line MDAMB157", "value": 12.9, "unit": "nM"}, {"measurement": "GI50", "setting": "[1]; MDA-MB-175-VII, MDAMB175VII cell line, censored GI50 values", "value": 38.9, "unit": "nM"}, {"measurement": "GI50", "setting": "[1]; MDA-MB-231, MDAMB231 cell line, censored GI50 values", "value": 5.13, "unit": "nM"}, {"measurement": "GI50", "setting": "[1]; MDA-MB-231, cell line MDAMB231", "value": 5.13, "unit": "nM"}, {"measurement": "GI50", "setting": "[1]; MDA-MB-361, MDAMB361 cell line, censored GI50 values", "value": 6.61, "unit": "nM"}, {"measurement": "GI50", "setting": "[1]; MDA-MB-361, cell line MDAMB361", "value": 6.61, "unit": "nM"}, {"measurement": "GI50", "setting": "[1]; MDA-MB-415, MDAMB415 cell line, censored GI50 values", "value": 18.2, "unit": "nM"}, {"measurement": "GI50", "setting": "[1]; MDA-MB-415, cell line MDAMB415", "value": 18.2, "unit": "nM"}, {"measurement": "GI50", "setting": "[1]; MDA-MB-436, MDAMB436 cell line, censored GI50 values", "value": 26.9, "unit": "nM"}, {"measurement": "GI50", "setting": "[1]; MDA-MB-436, cell line MDAMB436", "value": 26.9, "unit": "nM"}, {"measurement": "GI50", "setting": "[1]; MDA-MB-453, MDAMB453 cell line, censored GI50 values", "value": 3.8, "unit": "nM"}, {"measurement": "GI50", "setting": "[1]; MDA-MB-453, cell line MDAMB453", "value": 3.8, "unit": "nM"}, {"measurement": "GI50", "setting": "[1]; MDA-MB-468, MDAMB468 cell line, censored GI50 values", "value": 10.7, "unit": "nM"}, {"measurement": "GI50", "setting": "[1]; MDA-MB-468, cell line MDAMB468", "value": 10.7, "unit": "nM"}, {"measurement": "GI50", "setting": "[1]; SK-BR-3, SKBR3 cell line, censored GI50 values", "value": 17.4, "unit": "nM"}, {"measurement": "GI50", "setting": "[1]; SK-BR-3, cell line SKBR3", "value": 17.4, "unit": "nM"}, {"measurement": "GI50", "setting": "[1]; SUM52PE, SUM52PE cell line, censored GI50 values", "value": 5.37, "unit": "nM"}, {"measurement": "GI50", "setting": "[1]; SUM52PE, cell line SUM52PE", "value": 5.37, "unit": "nM"}, {"measurement": "GI50", "setting": "[1]; SUM149PT, SUM149PT cell line, censored GI50 values", "value": 12.3, "unit": "nM"}, {"measurement": "GI50", "setting": "[1]; SUM149PT, cell line SUM149PT", "value": 12.3, "unit": "nM"}, {"measurement": "GI50", "setting": "[1]; SUM185PE, SUM185PE cell line, censored GI50 values", "value": 8.32, "unit": "nM"}, {"measurement": "GI50", "setting": "[1]; SUM185PE, cell line SUM185PE", "value": 8.32, "unit": "nM"}, {"measurement": "GI50", "setting": "[1]; SUM1315MO2, SUM1315MO2 cell line, censored GI50 values", "value": 2.24, "unit": "nM"}, {"measurement": "GI50", "setting": "[1]; SUM-159-PT, SUM159PT cell line, censored GI50 values", "value": 12.3, "unit": "nM"}, {"measurement": "GI50", "setting": "[1]; SUM-159-PT, cell line SUM159PT", "value": 12.3, "unit": "nM"}, {"measurement": "GI50", "setting": "[1]; T47D, T47D cell line, censored GI50 values", "value": 4680, "unit": "nM"}, {"measurement": "GI50", "setting": "[1]; T47D, cell line T47D", "value": 4680, "unit": "nM"}, {"measurement": "GI50", "setting": "[1]; UACC-812, UACC812 cell line, censored GI50 values", "value": 74.1, "unit": "nM"}, {"measurement": "GI50", "setting": "[1]; UACC-812, cell line UACC812", "value": 74.1, "unit": "nM"}, {"measurement": "GI50", "setting": "[1]; UACC-893, UACC893 cell line, censored GI50 values", "value": 11, "unit": "nM"}, {"measurement": "GI50", "setting": "[1]; UACC-893, cell line UACC893", "value": 11, "unit": "nM"}, {"measurement": "GI50", "setting": "[1]; ZR-75-1, ZR751 cell line, censored GI50 values", "value": 44.7, "unit": "nM"}, {"measurement": "GI50", "setting": "[1]; ZR-75-1, cell line ZR751", "value": 44.7, "unit": "nM"}, {"measurement": "GI50", "setting": "[1]; ZR-75B, ZR75B cell line, censored GI50 values", "value": 8.91, "unit": "nM"}, {"measurement": "GI50", "setting": "[1]; ZR-75B, cell line ZR75B", "value": 8.91, "unit": "nM"}, {"measurement": "GI50", "setting": "[1]; cell line 600MPE", "value": 5130, "unit": "nM"}, {"measurement": "GI50", "setting": "[1]; cell line HCC2185", "value": 26300, "unit": "nM"}, {"measurement": "GI50", "setting": "[1]; cell line HCC3153", "value": 51.3, "unit": "nM"}, {"measurement": "GI50", "setting": "[1]; cell line LY2", "value": 13.2, "unit": "nM"}, {"measurement": "GI50", "setting": "[1]; cell line MDAMB134V", "value": 13.5, "unit": "nM"}, {"measurement": "GI50", "setting": "[1]; cell line MDAMB175V", "value": 38.9, "unit": "nM"}, {"measurement": "GI50", "setting": "[1]; cell line SUM1315MO", "value": 2.24, "unit": "nM"}, {"measurement": "association of response with homozygous deletion at 9p21 (CDKN2A)", "setting": "[2]", "value": "associated with response"}]}
